Data taken from article PMC8161026, “Synthesis and Anticancer Activity Evaluation of 5-[2-Chloro-3-(4-nitrophenyl)-2-propenylidene]-4-thiazolidinones” (Molecules, 2021).

Assays:
NCI-H226 = assay: NCI DTP 60 cell line screen, SRB
SN12C [1] = details: SN12C (Renal Cancer), 48 h, SRB
A549/ATCC = assay: cells; details: Homo sapiens, A549, 48 h; for CC50: read-out: LC50
M14 = assay: NCI DTP 60 cell line screen, SRB; details: for GI50 / CC50: Homo sapiens, M14, 48 h; for CC50: read-out: LC50; for TGI: M14 (Melanoma), 48 h, SRB
SW-620 [2] = details: SW-620 (Colon Cancer), 48 h, SRB
SK-MEL-2 = SK-MEL-2 (Melanoma), 48 h, SRB
HL-60(TB) [3] = details: for TGI: HL-60(TB) (Leukemia), 48 h, SRB
ACHN = assay: NCI DTP 60 cell line screen, SRB; details: 48 h; for TGI: ACHN (Renal Cancer), SRB; for GI50 / CC50: Homo sapiens, ACHN; for CC50: read-out: LC50
DU-145 [4] = details: DU-145 (Prostate Cancer), 48 h, SRB
DU-145 [5] = assay: cells; details: Homo sapiens, DU-145, 48 h; for CC50: read-out: LC50
PC-3 = PC-3 (Prostate Cancer), 48 h, SRB
BT-549 = assay: NCI DTP 60 cell line screen, SRB; details: for TGI: BT-549 (Breast Cancer), 48 h, SRB; for GI50 / CC50: Homo sapiens, BT-549, 48 h; for CC50: read-out: LC50
HL-60(TB) [6] = assay: cells; details: Homo sapiens, HL-60, 48 h; for CC50: read-out: LC50
786-0 = assay: cells; details: Homo sapiens, 786-0, 48 h; for CC50: read-out: LC50
CAKI-1 = assay: NCI DTP 60 cell line screen, SRB; details: for TGI: CAKI-1 (Renal Cancer), 48 h, SRB; for GI50 / CC50: Homo sapiens, CAKI-1, 48 h; for CC50: read-out: LC50
SR [7] = details: for TGI: SR (Leukemia), 48 h, SRB
KM12 = KM12 (Colon Cancer), 48 h, SRB
NCI-H460 = assay: cells; details: Homo sapiens, NCI-H460, 48 h; for CC50: read-out: LC50
HOP-62 [8] = assay: cells; details: Homo sapiens, HOP-62, 48 h; for CC50: read-out: LC50
SK-OV-3 = assay: NCI DTP 60 cell line screen, SRB; details: for GI50 / CC50: Homo sapiens, SK-OV-3, 48 h; for CC50: read-out: LC50; for TGI: SK-OV-3 (Ovarian Cancer), 48 h, SRB
SR [9] = assay: cells; details: Homo sapiens, 48 h; for CC50: read-out: LC50
SK-MEL-5 = assay: NCI DTP 60 cell line screen, SRB; details: for GI50 / CC50: Homo sapiens, SK-MEL-5, 48 h; for CC50: read-out: LC50; for TGI: SK-MEL-5 (Melanoma), 48 h, SRB
NCI/ADR-Res = assay: NCI DTP 60 cell line screen, SRB; details: 48 h; for GI50 / CC50: Homo sapiens, NCI/ADR-RES; for CC50: read-out: LC50; for TGI: NCI/ADR-Res (Breast Cancer), SRB
HS 578T = assay: NCI DTP 60 cell line screen, SRB; details: 48 h
MALME-3M = assay: NCI DTP 60 cell line screen, SRB; details: 48 h; for GI50 / CC50: Homo sapiens, Malme-3M; for CC50: read-out: LC50; for TGI: MALME-3M (Melanoma), SRB
SN12C [10] = assay: cells; details: Homo sapiens, 48 h; for CC50: read-out: LC50
HOP-62 [11] = details: HOP-62 (Non-Small Cell Lung Cancer), 48 h, SRB
EKVX = assay: cells; details: Homo sapiens, 48 h; for CC50: read-out: LC50
MOLT-4 = assay: cells; details: Homo sapiens, MOLT-4, 48 h; for CC50: read-out: LC50
SW-620 [12] = assay: cells; details: Homo sapiens, SW-620, 48 h; for CC50: read-out: LC50
LOX IMVI = assay: cells; details: Homo sapiens, 48 h; for CC50: read-out: LC50
HT-29 = assay: NCI DTP 60 cell line screen, SRB
SNB-75 = SNB-75 (CNS Cancer), 48 h, SRB
OVCAR-4 = assay: NCI DTP 60 cell line screen, SRB

O=C1/C(=C/C(Cl)=C/c2ccc([N+](=O)[O-])cc2)SC(=S)N1/N=C\C(Cl)=C\c1ccc([N+](=O)[O-])cc1 [Compound 2c, 5-[(Z,2Z)-2-Chloro-3-(4-nitrophenyl)-2-propenylidene]-3-[(Z,2Z)-2-chloro-3-(4-nitrophenyl)-2-propenylideneamino]-2-thioxo-4-thiazolidinone] gave a GI50 (NCI-H226; Homo sapiens, NCI-H226, 48 h) of 12 µM, a CC50 (NCI-H226; Homo sapiens, NCI-H226, 48 h, read-out: LC50) of 84.2 µM and a TGI (NCI-H226; NCI-H226 (Non-Small Cell Lung Cancer), 48 h, SRB) of 31.8 µM. It also gave a TGI (SN12C [1]) greater than 100 µM, a GI50 (A549/ATCC) of 18.9 µM and a CC50 (A549/ATCC) of 96.1 µM. The GI50 (M14) was 16.2 µM, the CC50 (M14) was 78.5 µM and the TGI (M14) was 35.7 µM. It also gave a TGI (SW-620 [2]) greater than 100 µM, a TGI (SK-MEL-2) of 36.4 µM and a TGI (HL-60(TB) [3]) of 23.3 µM. For the same compound, the TGI (ACHN) was 29.7 µM, the GI50 (ACHN) was 15.6 µM and the CC50 (ACHN) was 56.4 µM. For the same compound, the TGI (DU-145 [4]) was 52.8 µM, the GI50 (DU-145 [5]) was 21.7 µM and the CC50 (DU-145 [5]) was greater than 100 µM. It also gave a TGI (PC-3) of 45.8 µM, a TGI (BT-549) of 76.0 µM and a GI50 (BT-549) of 27.3 µM. The CC50 (BT-549) was greater than 100 µM, the GI50 (HL-60(TB) [6]) was 5.32 µM and the CC50 (HL-60(TB) [6]) was 87.2 µM. For the same compound, the GI50 (786-0) was 12.1 µM, the CC50 (786-0) was 77.8 µM and the TGI (CAKI-1) was 11.2 µM. The GI50 (CAKI-1) was 3.11 µM, the CC50 (CAKI-1) was greater than 100 µM and the TGI (SR [7]) was 12.0 µM. It also gave a TGI (KM12) of 59.1 µM, a GI50 (NCI-H460) of 15 µM and a CC50 (NCI-H460) of 69.5 µM. The GI50 (HOP-62 [8]) was 17.2 µM, the CC50 (HOP-62 [8]) was 91.9 µM and the GI50 (SK-OV-3) was 59.6 µM. It also gave a CC50 (SK-OV-3) greater than 100 µM, a TGI (SK-OV-3) greater than 100 µM and a GI50 (SR [9]) of 3.67 µM. It also gave a CC50 (SR [9]) greater than 100 µM, a GI50 (SK-MEL-5) of 19.4 µM and a CC50 (SK-MEL-5) of 75.6 µM. The TGI (SK-MEL-5) was 38.3 µM, the GI50 (NCI/ADR-Res) was 6.55 µM and the CC50 (NCI/ADR-Res) was 61.7 µM. For the same compound, the TGI (NCI/ADR-Res) was 20.8 µM, the TGI (HS 578T; HS 578T (Breast Cancer), SRB) was greater than 100 µM and the GI50 (HS 578T; Homo sapiens, Hs-578T) was 29.5 µM. The CC50 (HS 578T; Homo sapiens, Hs-578T, read-out: LC50) was greater than 100 µM, the GI50 (MALME-3M) was 25 µM and the CC50 (MALME-3M) was greater than 100 µM. The TGI (MALME-3M) was 60.4 µM, the GI50 (SN12C [10]) was 29 µM and the CC50 (SN12C [10]) was greater than 100 µM. The TGI (HOP-62 [11]) was 39.7 µM, the GI50 (EKVX) was 23.7 µM and the CC50 (EKVX) was 96.1 µM. It also gave a GI50 (MOLT-4) of 3.2 µM, a CC50 (MOLT-4) of 52.5 µM and a GI50 (SW-620 [12]) of 7.24 µM. For the same compound, the CC50 (SW-620 [12]) was greater than 100 µM, the GI50 (LOX IMVI) was 13 µM and the CC50 (LOX IMVI) was 63.8 µM.

For O=C1/C(=C/C(Cl)=C/c2ccc([N+](=O)[O-])cc2)SC(=S)N1c1ccc(O)cc1 [Compound 2f, 5-[(Z,2Z)-2-Chloro-3-(4-nitrophenyl)-2-propenylidene]-3-(4-hydroxyphenyl)-2-thioxo-4-thiazolidinone], the TGI (SN12C [1]) was 4.41 µM, the GI50 (A549/ATCC) was 2.25 µM and the CC50 (A549/ATCC) was greater than 100 µM. It also gave a GI50 (M14) of 1.9 µM, a CC50 (M14) of 7.32 µM and a TGI (M14) of 3.73 µM. The TGI (SW-620 [2]) was 1.52 µM, the “TI (Therapeutic Index)” value (HL-60(TB) [3]; GI50 (normal blood lymphocyte)/GI50 (HL-60(TB))) was greater than 206.19 and the TGI (HL-60(TB) [3]) was 4.48 µM. For the same compound, the TGI (ACHN) was 3.51 µM, the GI50 (ACHN) was 1.7 µM and the CC50 (ACHN) was 7.27 µM. It also gave a TGI (HT-29; HT-29 (Colon Cancer), 48 h, SRB) greater than 100 µM, a GI50 (HT-29; Homo sapiens, HT-29, 48 h) of 2.14 µM and a CC50 (HT-29; Homo sapiens, HT-29, 48 h, read-out: LC50) greater than 100 µM. The TGI (DU-145 [4]) was 5.81 µM, the GI50 (DU-145 [5]) was 0.666 µM and the CC50 (DU-145 [5]) was 50.1 µM. For the same compound, the TGI (PC-3) was 84.8 µM, the TGI (BT-549) was 7.71 µM and the GI50 (BT-549) was 1.55 µM. It also gave a CC50 (BT-549) greater than 100 µM, a GI50 (HL-60(TB) [6]) of 0.485 µM and a CC50 (HL-60(TB) [6]) greater than 100 µM. For the same compound, the GI50 (786-0) was 2.04 µM, the CC50 (786-0) was 7.18 µM and the TGI (CAKI-1) was greater than 100 µM. For the same compound, the GI50 (CAKI-1) was 4.44 µM, the CC50 (CAKI-1) was greater than 100 µM and the “TI (Therapeutic Index)” value (SR [7]; GI50 (normal blood lymphocyte)/GI50 (SR)) was >10,000. For the same compound, the TGI (SR [7]) was 0.138 µM, the TGI (KM12) was greater than 100 µM and the GI50 (NCI-H460) was 0.754 µM. For the same compound, the CC50 (NCI-H460) was greater than 100 µM, the GI50 (HOP-62 [8]) was 2.61 µM and the CC50 (HOP-62 [8]) was 11.6 µM. It also gave a GI50 (SK-OV-3) of 10.2 µM, a CC50 (SK-OV-3) greater than 100 µM and a TGI (SK-OV-3) of 41.5 µM. It also gave a GI50 (SR [9]) of 0.01 µM, a CC50 (SR [9]) greater than 100 µM and a TGI (SNB-75) greater than 100 µM. It also gave a GI50 (SK-MEL-5) of less than 0.01 µM, a CC50 (SK-MEL-5) of 3.41 µM and a TGI (SK-MEL-5) of less than 0.01 µM. For the same compound, the GI50 (NCI/ADR-Res) was 2.17 µM, the CC50 (NCI/ADR-Res) was greater than 100 µM and the TGI (NCI/ADR-Res) was 6.13 µM. For the same compound, the GI50 (MALME-3M) was 6.53 µM, the CC50 (MALME-3M) was 94.5 µM and the TGI (MALME-3M) was 27.6 µM. It also gave a GI50 (SN12C [10]) of 1.98 µM, a CC50 (SN12C [10]) greater than 100 µM and a GI50 (OVCAR-4; Homo sapiens, OVCAR-4, 48 h) of 2.63 µM. The CC50 (OVCAR-4; Homo sapiens, OVCAR-4, 48 h, read-out: LC50) was greater than 100 µM, the TGI (OVCAR-4; OVCAR-4 (Ovarian Cancer), 48 h, SRB) was greater than 100 µM and the TGI (HOP-62 [11]) was 5.22 µM. It also gave a GI50 (EKVX) of 2.37 µM, a CC50 (EKVX) greater than 100 µM and a GI50 (MOLT-4) of 0.389 µM. The CC50 (MOLT-4) was greater than 100 µM, the GI50 (SW-620 [12]) was 0.037 µM and the CC50 (SW-620 [12]) was greater than 100 µM. The GI50 (LOX IMVI) was 1.17 µM and the CC50 (LOX IMVI) was greater than 100 µM.
